Experimental data published in patent US7119076B2, “Preventives or remedies for endometriosis or uterine myoma” (priority 2000, dated 2006).

System: endometriosis model rats
Test: Therapeutic effect in endometriosis model rats (autotransplanted uterine tissue on peritoneum), histology of lesion
Format: in vivo, Sprague-Dawley rats (female)
Conditions: oral, lesion excised seven days after preparation; for invasion of mast cells in lesion sample: light and electron microscopy; for degree of interstitial proliferative lesion: versus control group
Description: Endometriosis model rats were prepared by the method described in Michael W. Vernon et al., FERTILITY AND STERILITY, Vol. 44, No. 5, Nov. 1985. That is, endometriosis model rats were prepared as follows: Sprague-Dawley rats (female) of 8 weeks old were acclimatized for 2 weeks under 12 hours light-dark condition. From each rat, right uterine horn was excised under general anesthesia with sevoflurane and ketamine hydrochloride, and a tissue piece sizing 5 mm×5 mm was prepared therefrom. The tissue piece was subjected to autotransplantation such that the endometrium surface is attached to peritoneum.
From 24 hours after the preparation of the endometriosis model rats, commercially available clarithromycin tablets (trademark “Clarith Tablet 50 for Children” prepared by Taisho Pharmaceutical Co., Ltd) were orally administered to the rats for 3 days. […] Clarithromycin was not administered to control animals. Seven days after the preparation of the model rats, at which the model lesion reached its peak, the peritoneum tissue including the graft up to the abdominal muscle was excised to obtain a lesion sample. From the thus obtained samples, light microscope specimens (hematoxylin-eosin staining, toluidine blue staining) and electron microscope specimens (uranium-lead double staining) were prepared, and the existence of invaded mast cells, which is a symptom of endometriosis, and the degree of interstitial proliferative lesion were observed.

[1] = 10 mg/kg per day for 3 days from 24 hours after model preparation
[2] = 6 mg/kg per day for 3 days from 24 hours after model preparation

| Structure (SMILES) | invasion of mast cells in lesion sample [1] | degree of interstitial proliferative lesion [1] | invasion of mast cells in lesion sample [2] | degree of interstitial proliferative lesion [2] |
| --- | --- | --- | --- | --- |
| CC[C@H]1OC(=O)[C@H](C)[C@@H](O[C@H]2C[C@@](C)(OC)[C@@H](O)[C@H](C)O2)[C@H](C)[C@@H](O[C@@H]2O[C@H](C)C[C@H](N(C)C)[C@H]2O)[C@](C)(O)C[C@@H](C)CN(C)[C@H](C)[C@@H](O)[C@]1(C)O [azithromycin] | not observed | apparently reduced |  |  |
| CC[C@H]1OC(=O)[C@H](C)[C@@H](O[C@H]2C[C@@](C)(OC)[C@@H](O)[C@H](C)O2)[C@H](C)[C@@H](O[C@@H]2O[C@H](C)C[C@H](N(C)C)[C@H]2O)[C@](C)(OC)C[C@@H](C)C(=O)[C@H](C)[C@@H](O)[C@]1(C)O [clarithromycin] | not observed | apparently reduced |  |  |
| CC[C@H]1OC(=O)[C@H](C)[C@@H](O[C@H]2C[C@@](C)(OC)[C@@H](O)[C@H](C)O2)[C@H](C)[C@@H](O[C@@H]2O[C@H](C)C[C@H](N(C)C)[C@H]2O)[C@](C)(O)C[C@@H](C)/C(=N\OCOCCOC)[C@H](C)[C@@H](O)[C@]1(C)O [roxithromycin] |  |  | not observed | apparently reduced |
